For series [1], the system named is IKBKAP gene with IVS20+6T>C mutation. As to conditions: in vitro and in vivo; cited from earlier work.
Series [2] deals with MC38 cells. As to the kind of experiment: RT-PCR analysis with neojunction primers. Format: cell-based, murine. As to conditions: 10 μM, 6 hours. As for the experimental part:
(§1) [FIG. 5-2] Continuation of FIG. 5. D and E: RT-PCR analysis for splice-neoantigen coding forms (splice-NA forms) in MC38 cells treated with 10 µM Compound 1 or vehicle control (0.1% DMSO) for 6 hours. Actb served as a loading control. * represents p<0.05, ** represents p<0.01, and *** represents p<0.001. F: Splice-neoantigen producing rates calculated from RNA-seq data (n=3 biological replicates) are indicated as the APSI (Compound 1-DMSO). All data are shown as the mean±SEM. All experiments were performed at least twice. Statistical significance was determined using unpaired Student's t-test for (B) and (E).
In addition to the RNA-seq analysis, the induction of these splice-neoantigen-coding transcripts via treatment with Compound 1 was also validated using RT-PCR analysis with neojunction primers in MC38 cells (FIGS. 5-2D and 5-2E). The immunogenicity of the identified splice-neoantigens was confirmed using an IFN-γ ELISpot assay.
Total RNA was extracted from cells using a RNeasy Mini Kit (Qiagen), according to the manufacturer's protocol, and subjected to reverse transcription using a High Capacity cDNA Reverse Transcription Kit (Applied Biosystems, Foster City, CA). Genes were amplified with KOD One DNA polymerase (ToYoBo) and target-specific primer sets. […] Ethidium bromide-stained images were captured using a ChemiDoc MP Imaging System and the data were analyzed using ImageJ software. […]

Series [3] concerns various murine cancer cell lines (LLC, Pan02, WEHI3, CT26, EG7, B16, MC38). The series is described as follows: RNA-seq analysis of splice-neoantigen producing events in various murine cancer cell lines. As to conditions: LLC, Pan02, WEHI3, CT26, EG7, B16. It is filed as cell-based. The protocol: as §1
Then, whether the Compound 1-induced splice-neoantigens are shared across cancer type was examined using murine lung carcinoma LLC, pancreatic ductal adenocarcinoma Pan02, leukemia WEHI3, colorectal adenocarcinoma CT26, lymphoma EG7, and skin melanoma B16 cells.
The effects of Compound 2 on RNA splicing events (splicing alterations) producing the aforementioned six splice-neoantigens in various murine cancer cell lines were investigated through RNA-Seq analysis in the same manner as in FIG. 5-2F, except that Compound 1 was replaced with Compound 2 (FIG. 8).

The nature of series [4]: Systemic administration of a high dose to normal mice for 4 weeks (autoimmune reactions). Format: in vivo. The protocol: [FIG. 2-2] Continuation of FIG. 2. H to M: Compound 1 (100 mg/kg) or vehicle control (0.5% CMC-Na) was orally administered to 7-week-old female C57BL/6N mice twice daily for 7 continuous days (J and K) or once daily for 4 weeks (I, L, and M), while αPD-L1 antibody or isotype control (isotype IgG) was intraperitoneally injected once weekly. The experimental scheme is indicated in (H). Body weights (n=6/group) were monitored weekly (I). Mice were sacrificed on day 7 (n=5/group) to analyze peripheral blood (J) and spleen (K).
[FIG. 2-3] Continuation of FIG. 2. Land M: Mice were sacrificed on day 28 (n=3/group) to perform CD8 immunohistochemical staining (IHC). Scale bars represent 50 μm. The number of CD8+ cells was counted using ImageJ software in three areas of each tissue. All data are shown as the mean±SEM. Experiments were performed at least twice for B to G, or once for others. *** p<0.001 vs. vehicle control was determined using one-way ANOVA followed by Bonferroni's multiple comparisons test.
Next, to determine whether the enhancement of cancer immunity by co-administration of Compound 1 and αPD-L1 raises concerns regarding autoimmune reactions, a high dose of Compound 1 was systemically administered to normal mice for 4 weeks (FIG. 2-2H).

Series [5] deals with MC38 cells. The series is described as follows: IFN-γ signaling and expression of MHC class I components and PD-L1 in MC38 cells. It is filed as cell-based, murine. As to conditions: for decrease in PD-L1 expression on the cell surface / increase in H2-K^b expression: 72 hours. The text has this:
MHC class I expressed in cancer cells is critical for neoantigen presentation, which is indispensable for CD8^+ T cell-dependent immune surveillance and tumor killing. To investigate whether Compound 1 modulates the neoantigen presentation pathway, first, the effects of Compound 1 on IFN-γ signaling and the expression of MHC class I components, including […] (B2M) and H2-K^b in MC38 cells, were examined because CD8^+ T cell-secreted IFN-γ is a major inducer of MHC class I components. […] In contrast, any changes in the expression of PD-L1 were not detected in host dendritic cells or macrophages. […] However, these alterations were likely not the functional mechanisms through which Compound 1 exerts its antitumor effects (FIGS. 1-2O and 1-2P), as enhanced antitumor effects of Compound 1 were observed when co-administered with αPD-L1.

Data on one compound can be found in patent US20240423988A1, “Improvement of Tumor Immunogenicity by Means of Splicing-Controlling Compound” (Kyoto University, priority 2021, published 2024).

Take `Clc1nc(NCc2ccco2)c2[nH]cnc2n1` [Compound 1]: the “aberrant splicing in the IKBKAP gene” value in series [1] is given as “able to improve”. Further, the splice-neoantigen-coding transcripts entry in series [2] is “induction”. The “induced splice alterations shared across cancer type” value in series [3] is “shared in most of the examined cells”. Further, the “leukocyte numbers and biochemical parameters in peripheral blood” value in series [4] (data not shown) is given as “no alterations were observed”. Moreover, the “spleen weight, leukocyte numbers, and expression of T cell activation markers in spleen and peripheral blood” value in series [4] (day 7, with or without αPD-L1) is given as “no effect”. For the same compound, the “histological analysis of non-malignant tissues: CD8^+ T cells, inflammatory lesions” value in series [4] (day 28, irrespective of co-treatment with αPD-L1) was “did not result in the accumulation of CD8^+ T cells or appearance of inflammatory lesions”. In series [4] (throughout 4 weeks, with or without αPD-L1), the body weight changes result is given as “comparable”. Besides, the “phosphorylation of STAT1 and STAT3 and expression of B2M protein” value in series [5] was “no such effects”. Besides, the results for the “decrease in PD-L1 expression on the cell surface” value in series [5] (IFN-γ 0 ng/ml), in series [5] (IFN-γ 0.1 ng/ml) and in series [5] (IFN-γ 1 ng/ml) were 3.8%, 3.2% and 26.1%, respectively. Moreover, the “increase in H2-K^b expression” value in series [5] (IFN-γ 0 ng/ml) is given as 11.1%; in series [5] (IFN-γ 0.1 ng/ml), 12.4%.
